We go through one compound from patent US12691092B2, “Method for reducing cutaneous skin scarring by pre-emptive priming and compounds and compositions for its implementation” (SOS SCIENCE OF SKIN LTD, priority 2020, dated 2026).

For one experiment, the system named is HBB, HBA1, HBA2. Briefly: mRNA sequencing of scar biopsies. Particulars: group-1, week 4. It is filed as in vivo, human. As to the method: (§1) A double-blind randomized placebo-controlled trial was conducted using a temporal punch-biopsy model. The punch biopsy and topical application methodology used in the study is illustrated in FIG. 1, namely showing pre-injury pre-emptive priming (7-days), pre-injury pre-emptive priming (3-days), day of injury (immediate application on day 0), post-injury (delayed 2 weeks post injury) including biopsy time points and time of topical applications. Each group applied both placebo and topical formulations twice daily for the duration of the study until week 8, with only the starting time point differing between groups Participants were split into 4 groups (n=10 in each group) in order to compare different modes (timings) of commencement of the topical application: • Group-1: Pre-emptive Priming (7-days): pre-injury • Group-2: Pre-emptive Priming (3-days): pre-injury • Group-3: Immediate (0-day): day-of-injury • Group-4: Delayed (14-days): post-injury Clinical quantitative devices were used to objectively monitor cutaneous healing at weekly intervals and punch biopsies were performed on day 0 (uninjured skin) and at weeks 4 and 8 for protein and gene expression analyses. […] Excisional skin biopsies in upper arms were evaluated weekly with multiple quantitative devices over an 8-week period. […]

The next experiment concerns elastin. Briefly: Gene expression analysis of elastin. It is filed as in vivo, human. Particulars: weeks 4 and 8; significant in groups-1 to 3 at week 8 (p<0.05). The protocol:
as §1

In the next experiment the test system is Hemeoxygenase-1 (HO-1). The experiment is described as follows: HO-1 immunohistochemical marker (anti-oxidant effect). Particulars: week 4, all groups, p<0.01. It is filed as in vivo, human. The protocol:
as §1

Experiment [1] deals with human skin scarring model. The experiment is described as follows: Blood flow by dynamic optical coherence tomography (D-OCT). Format: in vivo. As to the method: A double-blind randomized placebo-controlled trial was conducted using a temporal punch-biopsy model. The punch biopsy and topical application methodology used in the study is illustrated in FIG. 1, namely showing pre-injury pre-emptive priming (7-days), pre-injury pre-emptive priming (3-days), day of injury (immediate application on day 0), post-injury (delayed 2 weeks post injury) including biopsy time points and time of topical applications. Each group applied both placebo and topical formulations twice daily for the duration of the study until week 8, with only the starting time point differing between groups Participants were split into 4 groups (n=10 in each group) in order to compare different modes (timings) of commencement of the topical application: • Group-1: Pre-emptive Priming (7-days): pre-injury • Group-2: Pre-emptive Priming (3-days): pre-injury • Group-3: Immediate (0-day): day-of-injury • Group-4: Delayed (14-days): post-injury Clinical quantitative devices were used to objectively monitor cutaneous healing at weekly intervals and punch biopsies were performed on day 0 (uninjured skin) and at weeks 4 and 8 for protein and gene expression analyses. In the trial, topical EGCG and a placebo topical were applied twice daily for the duration of the trial until week 8 with only the starting time points differing between groups. Blood flow analysis using non-invasive objective measures, including full-field laser perfusion imaging (FLPI) and dynamic optical coherence tomography (D-OCT), was undertaken. Clinical images and the corresponding FLPI and D-OCT images are shown in FIGS. 6a, 6b and 6c respectively.

For experiment [2], the system named is Nuclear factor erythroid 2-related factor 2 (NRF2). Briefly: NRF2 immunohistochemical marker (anti-oxidant effect). Format: in vivo, human. Particulars: scar samples, weeks 4 and 8. As to the method: as §1

For `O=C(OC1Cc2c(O)cc(O)cc2OC1c1cc(O)c(O)c(O)c1)c1cc(O)c(O)c(O)c1` (single isomer, unassigned; (-)) [EGCG, (-)-epigallocatechin-3-gallate], the “mRNA sequencing: HBB, HBA1 and HBA2 expression with EGCG compared to placebo” value in the experiment on HBB, HBA1, HBA2 is recorded as “reduced”. The “Elastin gene expression, EGCG-treated samples compared to placebo” value in the experiment on elastin is given as “upregulation”. Also, in the experiment with Hemeoxygenase-1 (HO-1), the “HO-1 levels, EGCG-treated samples compared to placebo” value was “significantly higher”. Further, the “D-OCT blood flow, EGCG-treated compared to placebo” value in experiment [1] (group-1 weeks 1-8, group-2 weeks 1-8, group-3 weeks 1-5, 7, 8, group-4 weeks 4-7, p<0.01) was “significantly decreased”. Moreover, in experiment [1] (week 1, p<0.001, p=0.006, p=0.001), the “D-OCT blood flow, group comparison, groups 1-3 vs group-4” value is reported as “reduced blood flow more than group-4”. The “D-OCT blood flow, group comparison, group-1 vs group-4” value in experiment [1] (week 2, p=0.016) is reported as “greater difference than group-4”. In addition, the “D-OCT blood flow, group comparison, group-2 vs groups-3 and -4” value in experiment [1] (week 8, p=0.003, p=0.002) is “reduced more than groups-3 and -4”. The “NRF2 amounts, EGCG samples compared to placebo” value in experiment [2] is reported as “slightly higher amounts of NRF2 compared to placebo samples, although not significantly”.
